# Data reported in patent US20240270751A1, “Pyrazolopyridinone Compounds” (BeiGene Ltd., priority 2021, published 2024).
# Legend:
# [1] = biological target: DGKα (Homo sapiens (Human), UniProt P23743); assay: Biochemical DGK IC50 assay, DGKα ADP-Glo assay; conditions: 7.5 nM enzyme, 140 μM ATP, 80 μM DAG
# Summary of the method: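 ADP-Glo read-out with full-length DGKα on DAG/PS lipid micelle substrate in 25 mM HEPES pH 7.0, 0.5 mM EDTA, 160 mM octyl β-D-glucopyranoside. Compound final concentrations spanned 1.55˜10000 nM or 23.3˜150000 nM.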
# [2] = biological target: DGKζ (Homo sapiens (Human), UniProt Q13574); assay: Biochemical DGK IC50 assay, DGKζ ADP-Glo assay; conditions: 0.5 nM enzyme, 140 μM ATP, 80 μM DAG; read-out: DGKζ ADP-Glo assay IC50
# Chain of DGKζ (Q13574 other isoform, or with tags, fused parts or gaps): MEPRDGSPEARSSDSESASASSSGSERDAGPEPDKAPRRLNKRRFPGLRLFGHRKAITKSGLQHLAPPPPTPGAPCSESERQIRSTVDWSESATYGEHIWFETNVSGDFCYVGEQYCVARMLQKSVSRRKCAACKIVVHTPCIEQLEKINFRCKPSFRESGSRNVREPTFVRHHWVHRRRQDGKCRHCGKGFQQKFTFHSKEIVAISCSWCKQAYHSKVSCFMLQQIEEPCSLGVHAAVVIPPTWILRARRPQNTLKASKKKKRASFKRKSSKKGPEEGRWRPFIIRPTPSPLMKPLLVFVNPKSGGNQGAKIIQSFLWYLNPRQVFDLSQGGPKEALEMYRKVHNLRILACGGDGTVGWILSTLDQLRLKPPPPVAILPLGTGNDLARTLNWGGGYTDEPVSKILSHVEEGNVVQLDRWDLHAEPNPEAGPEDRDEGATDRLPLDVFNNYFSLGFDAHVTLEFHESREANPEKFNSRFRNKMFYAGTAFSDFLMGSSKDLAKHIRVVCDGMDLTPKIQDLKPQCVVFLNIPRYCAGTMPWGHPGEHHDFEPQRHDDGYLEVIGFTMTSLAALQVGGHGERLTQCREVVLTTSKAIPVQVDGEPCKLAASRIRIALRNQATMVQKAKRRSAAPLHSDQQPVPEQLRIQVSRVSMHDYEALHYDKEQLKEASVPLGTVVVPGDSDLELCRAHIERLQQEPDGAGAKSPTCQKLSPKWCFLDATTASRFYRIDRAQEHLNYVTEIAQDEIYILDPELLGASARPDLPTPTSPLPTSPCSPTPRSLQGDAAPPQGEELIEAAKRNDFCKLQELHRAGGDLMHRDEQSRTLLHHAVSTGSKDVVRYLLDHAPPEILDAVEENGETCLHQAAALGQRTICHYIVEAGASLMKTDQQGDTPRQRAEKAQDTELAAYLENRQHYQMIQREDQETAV
# Summary of the method: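 Full-length human DGKζ, His-TEV tagged and purified from baculovirus-infected Sf9 cells, assayed by ADP-Glo with DAG/PS lipid micelle substrate prepared in 25 mM HEPES pH 7.0 with octyl glucoside. Final compound concentrations spanned 1.55–10000 nM or 23.3–150000 nM.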
# Chain of DGKα (P23743 whole entry): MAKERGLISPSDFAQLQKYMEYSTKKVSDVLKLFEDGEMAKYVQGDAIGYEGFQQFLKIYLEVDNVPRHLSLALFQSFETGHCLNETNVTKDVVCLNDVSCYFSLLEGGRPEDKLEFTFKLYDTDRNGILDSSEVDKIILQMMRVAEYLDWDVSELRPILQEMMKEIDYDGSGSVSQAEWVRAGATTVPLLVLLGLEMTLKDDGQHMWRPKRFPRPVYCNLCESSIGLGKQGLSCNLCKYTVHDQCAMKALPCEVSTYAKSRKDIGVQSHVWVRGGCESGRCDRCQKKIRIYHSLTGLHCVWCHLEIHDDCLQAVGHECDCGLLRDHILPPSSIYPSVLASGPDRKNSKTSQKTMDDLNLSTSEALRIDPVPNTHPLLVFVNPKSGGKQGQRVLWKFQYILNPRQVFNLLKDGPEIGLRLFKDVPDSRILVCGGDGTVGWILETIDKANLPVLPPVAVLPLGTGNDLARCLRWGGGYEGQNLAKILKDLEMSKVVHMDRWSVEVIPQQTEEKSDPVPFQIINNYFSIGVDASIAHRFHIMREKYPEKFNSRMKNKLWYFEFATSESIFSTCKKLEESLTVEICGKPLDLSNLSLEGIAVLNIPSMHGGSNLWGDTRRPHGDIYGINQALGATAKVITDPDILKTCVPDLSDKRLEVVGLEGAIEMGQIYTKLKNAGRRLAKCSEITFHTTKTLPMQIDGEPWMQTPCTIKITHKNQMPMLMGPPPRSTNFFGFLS
IC50 [1],IC50 [2],SMILES
110000 nM,18000 nM,CC(c1ccc2nccnc2c1)N1C[C@H](C)N(c2cc(=O)n(C)c3cn(CC4CC4)nc23)C[C@H]1C (stereo partly drawn) [Compound A10]
> 150000 nM,> 150000 nM,CC(c1ccc2nccnc2c1)N1C[C@H](C)N(c2cc(=O)n(C)c3cn(CCN(C)C)nc23)C[C@H]1C (stereo partly drawn) [Compound A11]
> 150000 nM,2200 nM,CC(c1ccc2nccnc2c1)N1C[C@H](C)N(c2cc(=O)n(C)c3cn(CC4CO4)nc23)C[C@H]1C (stereo partly drawn) [Compound A12]
5900 nM,3700 nM,CC(c1ccc2nccnc2c1)N1C[C@H](C)N(c2cc(=O)n(C)c3cn(S(C)(=O)=O)nc23)C[C@H]1C (stereo partly drawn) [Compound A13]
52000 nM,12000 nM,CC(c1ccc2nccnc2c1)N1C[C@H](C)N(c2cc(=O)n(C)c3cn(C4CCC4)nc23)C[C@H]1C (stereo partly drawn) [Compound A14]
5900 nM,34000 nM,CC(c1ccc2nccnc2c1)N1C[C@H](C)N(c2cc(=O)n(C)c3cn(C(=O)C4CC4)nc23)C[C@H]1C (stereo partly drawn) [Compound A15]
9600 nM,4200 nM,"CC(c1ccc2nccnc2c1)N1C[C@H](C)N(c2cc(=O)n(C)c3cn(C4(C#N)CC4)nc23)C[C@H]1C (stereo partly drawn) [Compound A16, 1-(7-((2S,5R)-2,5-dimethyl-4-(1-(quinoxalin-6-yl)ethyl)piperazin-1-yl)-4-methyl-5-oxo-4,5-dihydro-2H-pyrazolo[4,3-b]pyridin-2-yl)cyclopropane-1-carbonitrile]"
9000 nM,13000 nM,"CC(c1ccc2nccnc2c1)N1C[C@H](C)N(c2cc(=O)n(C)c3cn(C4CC4)nc23)C[C@H]1C (stereo partly drawn) [Compound A17, 2-cyclopropyl-7-((2S,5R)-2,5-dimethyl-4-(1-(quinoxalin-6-yl)ethyl)piperazin-1-yl)-4-methyl-2,4-dihydro-5H-pyrazolo[4,3-b]pyridin-5-one]"
5700 nM,3700 nM,CC(c1ccc2nccnc2c1)N1C[C@H](C)N(c2cc(=O)n(C)c3cn(C(C)C)nc23)C[C@H]1C (stereo partly drawn) [Compound A18]
> 150000 nM,24000 nM,"CCS(=O)(=O)N1CC(CC#N)(n2cc3c(n2)c(N2C[C@@H](C)N(C(C)c4ccc5nccnc5c4)C[C@@H]2C)cc(=O)n3C)C1 (stereo partly drawn) [Compound A19, 2-(3-(7-((2S,5R)-2,5-dimethyl-4-(1-(quinoxalin-6-yl)ethyl)piperazin-1-yl)-4-methyl-5-oxo-4,5-dihydro-2H-pyrazolo[4,3-b]pyridin-2-yl)-1-(ethylsulfonyl)azetidin-3-yl)acetonitrile]"
> 150000 nM,39000 nM,"CC(c1ccc2nccnc2c1)N1C[C@H](C)N(c2cc(=O)n(C)c3cn(C(CC#N)C4CCCC4)nc23)C[C@H]1C (stereo partly drawn) [Compound A20, 3-cyclopentyl-3-(7-((2S,5R)-2,5-dimethyl-4-(1-(quinoxalin-6-yl)ethyl)piperazin-1-yl)-4-methyl-5-oxo-4,5-dihydro-2H-pyrazolo[4,3-b]pyridin-2-yl)propanenitrile]"
5300 nM,310 nM,C#CCn1cc2c(n1)c(N1C[C@@H](C)N(C(C)c3ccc4nccnc4c3)C[C@@H]1C)cc(=O)n2C (stereo partly drawn) [Compound A21]
1100 nM,13000 nM,"CC#CCn1cc2c(n1)c(N1C[C@@H](C)N([C@H](C)c3ccc4nccnc4c3)C[C@@H]1C)cc(=O)n2C [Compound A22a, 2-(but-2-yn-1-yl)-7-((2S,5R)-2,5-dimethyl-4-((R)-1-(quinoxalin-6-yl)ethyl)piperazin-1-yl)-4-methyl-2,4-dihydro-5H-pyrazolo[4,3-b]pyridin-5-one]"
190 nM,72 nM,"CC#CCn1cc2c(n1)c(N1C[C@@H](C)N([C@@H](C)c3ccc4nccnc4c3)C[C@@H]1C)cc(=O)n2C [Compound A22b, 2-(but-2-yn-1-yl)-7-((2S,5R)-2,5-dimethyl-4-((S)-1-(quinoxalin-6-yl)ethyl)piperazin-1-yl)-4-methyl-2,4-dihydro-5H-pyrazolo[4,3-b]pyridin-5-one]"
120 nM,57 nM,"CC#CCn1cc2c(n1)c(N1C[C@@H](CC)N(C(C)c3ccc4nccnc4c3)C[C@@H]1CC)cc(=O)n2C (stereo partly drawn) [Compound A23, 2-(but-2-yn-1-yl)-7-((2S,5R)-2,5-diethyl-4-(1-(quinoxalin-6-yl)ethyl)piperazin-1-yl)-4-methyl-2,4-dihydro-5H-pyrazolo[4,3-b]pyridin-5-one]"
150 nM,4300 nM,"C=C(C)n1cc2c(n1)c(N1C[C@@H](C)N(C(C)c3ccc4nccnc4c3)C[C@@H]1C)cc(=O)n2C (stereo partly drawn) [Compound A24, 7-((2S,5R)-2,5-dimethyl-4-(1-(quinoxalin-6-yl)ethyl)piperazin-1-yl)-4-methyl-2-(prop-1-en-2-yl)-2,4-dihydro-5H-pyrazolo[4,3-b]pyridin-5-one]"
54 nM,510 nM,"C=C(C)n1cc2c(n1)c(N1C[C@@H](CC)N(C(C)c3ccc4nccnc4c3)C[C@@H]1CC)cc(=O)n2C (stereo partly drawn) [Compound A25, 7-((2S,5R)-2,5-diethyl-4-(1-(quinoxalin-6-yl)ethyl)piperazin-1-yl)-4-methyl-2-(prop-1-en-2-yl)-2,4-dihydro-5H-pyrazolo[4,3-b]pyridin-5-one]"
4.3 nM,98000 nM,"C=C(C)n1cc2c(n1)c(N1C[C@@H](C)N(Cc3ccc(OC(F)(F)F)cc3)C[C@@H]1C)cc(=O)n2C [Compound A26, 7-((2S,5R)-2,5-dimethyl-4-(4-(trifluoromethoxy)benzyl)piperazin-1-yl)-4-methyl-2-(prop-1-en-2-yl)-2,4-dihydro-5H-pyrazolo[4,3-b]pyridin-5-one]"
4.3 nM,> 10000 nM,C=C(C)n1cc2c(n1)c(N1C[C@@H](CC)N(Cc3ccc(OC(F)(F)F)cc3)C[C@@H]1CC)cc(=O)n2C [Compound A27]
23000 nM,110 nM,"COCc1cc(F)ccc1C(C)N1C[C@H](C)N(c2cc(=O)n(C)c3cn(CC#N)nc23)C[C@H]1C (stereo partly drawn) [Compound A29, 2-(7-((2S,5R)-4-(1-(4-fluoro-2-(methoxymethyl)phenyl)ethyl)-2,5-dimethylpiperazin-1-yl)-4-methyl-5-oxo-4,5-dihydro-2H-pyrazolo[4,3-b]pyridin-2-yl)acetonitrile]"

IC50 [1],IC50 [2],SMILES
5100 nM,110 nM,COCc1cc(C(C)N2C[C@H](C)N(c3cc(=O)n(C)c4cn(CC#N)nc34)C[C@H]2C)ccc1F (stereo partly drawn) [Compound A30]
1200 nM,8100 nM,COCc1ccc(C(C)N2C[C@H](C)N(c3cc(=O)n(C)c4cn(CC#N)nc34)C[C@H]2C)cc1 (stereo partly drawn) [Compound A31]
1200 nM,230 nM,COc1cc(F)c(C(C)N2C[C@H](C)N(c3cc(=O)n(C)c4cn(CC#N)nc34)C[C@H]2C)c(F)c1 (stereo partly drawn) [Compound A32]
160 nM,> 10000 nM,CC(c1ccc(F)cn1)N1C[C@H](C)N(c2cc(=O)n(C)c3cn(CC#N)nc23)C[C@H]1C (stereo partly drawn) [Compound A33]
8300 nM,5800 nM,CC(c1ccc2ncnn2c1)N1C[C@H](C)N(c2cc(=O)n(C)c3cn(CC#N)nc23)C[C@H]1C (stereo partly drawn) [Compound A34]
870 nM,1200 nM,COc1cc(F)c(C(C)N2C[C@H](C)N(c3cc(=O)n(C)c4cn(CC#N)nc34)C[C@H]2C)cc1F (stereo partly drawn) [Compound A35]
550 nM,970 nM,CCC(c1ccc(C2CC2)cc1)N1C[C@H](C)N(c2cc(=O)n(C)c3cn(CC#N)nc23)C[C@H]1C (stereo partly drawn) [Compound A36]
140 nM,5400 nM,CC(c1ccccc1)N1C[C@H](C)N(c2cc(=O)n(C)c3cn(CC#N)nc23)C[C@H]1C (stereo partly drawn) [Compound A37]
899 nM,610 nM,COc1ccc(C(C)N2C[C@H](C)N(c3cc(=O)n(C)c4cn(CC#N)nc34)C[C@H]2C)cc1 (stereo partly drawn) [Compound A38]
2300 nM,270 nM,CC(c1ccc2cccnc2c1)N1C[C@H](C)N(c2cc(=O)n(C)c3cn(CC#N)nc23)C[C@H]1C (stereo partly drawn) [Compound A40]
> 10000 nM,1000 nM,Cc1nc2cc(C(C)N3C[C@H](C)N(c4cc(=O)n(C)c5cn(CC#N)nc45)C[C@H]3C)ccc2o1 (stereo partly drawn) [Compound A41]
> 10000 nM,3390 nM,Cc1nc2cccc(C(C)N3C[C@H](C)N(c4cc(=O)n(C)c5cn(CC#N)nc45)C[C@H]3C)c2o1 (stereo partly drawn) [Compound A42]
2900 nM,65 nM,CC(c1ccc2c(c1)OCCO2)N1C[C@H](C)N(c2cc(=O)n(C)c3cn(CC#N)nc23)C[C@H]1C (stereo partly drawn) [Compound A43]
8100 nM,610 nM,C[C@@H]1CN(c2cc(=O)n(C)c3cn(CC#N)nc23)[C@@H](C)CN1Cc1ccc2nccnc2c1 [Compound A44]
> 10000 nM,1420 nM,Cc1nc2c(C(C)N3C[C@H](C)N(c4cc(=O)n(C)c5cn(CC#N)nc45)C[C@H]3C)cccc2o1 (stereo partly drawn) [Compound A45]
> 10000 nM,> 10000 nM,C[C@H]1CN([C@@H](C)c2ccc3c(c2)OC(C)(C)CO3)[C@@H](C)CN1c1cc(=O)n(C)c2cn(CC#N)nc12 [Compound A46a]
2570 nM,21 nM,C[C@@H]1CN(c2cc(=O)n(C)c3cn(CC#N)nc23)[C@@H](C)CN1[C@@H](C)c1ccc2c(c1)OC(C)(C)CO2 [Compound A46b]
4200 nM,9.3 nM,"CC[C@H]1CN(C(C)c2ccc3nccnc3c2)[C@H](CC)CN1c1cc(=O)n(CC)c2cn(CC#N)nc12 (stereo partly drawn) [Compound A47, 2-(7-((2S,5R)-2,5-diethyl-4-(1-(quinoxalin-6-yl)ethyl)piperazin-1-yl)-4-ethyl-5-oxo-4,5-dihydro-2H-pyrazolo[4,3-b]pyridin-2-yl)acetonitrile]"
75 nM,73 nM,CC[C@H]1CN(C(C)c2ccc3cnccc3c2)[C@H](CC)CN1c1cc(=O)n(C)c2cn(CC#N)nc12 (stereo partly drawn) [Compound A48]
